Experimental data published in patent publication US10233201B2, “Class of HDAC inhibitors expands the renal progenitor cells population and improves the rate of recovery from acute kidney injury” (University of Pittsburgh—Of the Commonwealth System of …, priority 2012, dated 2019).

Tests used:
histone H4 acetylation = test: Histone H4 hyperacetylation Western blot in embryos; type: in vivo, zebrafish; details: 24 hpf embryos treated 6 hours; 3 μM PTBA, 25 μM PBA, 200 nM TSA
Description: It was next determined whether the HDACi function of PTBA was quantifiable in vivo. 24 hpf embryos were treated with 3 μM PTBA, 25 μM PBA, or 200 nM TSA for 6 hours. Protein extracts were prepared and immunoblotted with an anti-hyperacetylated histone H4 antibody. […] Furthermore, increasing the compound concentration caused a corresponding increase in hyperacetylation (FIG. 21).
SDS-PAGE and Western blotting were performed as described previously with some modifications (Noel, E. S. et al. Organ-specific requirements for Hdac1 in liver and pancreas formation. Dev Biol 322, 237-250, (2008)). Proteins were separated on 18% SDS-PAGE gels. Membranes were incubated at 4° C. overnight with 1:1000 anti-hyperacetylated histone H4 antibody (06-946, Millipore) or 1:1000 anti-α-tubulin antibody (Sigma-Aldrich) in PBT containing 5% nonfat milk.

[1] = tested on: human HDACs (HeLa cell nuclear extract); test: Fluorescence histone deacetylation assay with HeLa cell nuclear extract; type: biochemical; details: 5 mM compound, 10 μg HeLa extract
Description: To evaluate this in vitro, the deacetylation of a fluorescent peptide substrate was measured in the presence of human HDACs.
In vitro HDAC activity assays were performed using a fluorescence HDAC assay kit (Active Motif) according to the manufacturer's instructions. For maintaining compound solubility at 5 mM, the final DMSO concentration in all assay wells was increased to 5%. Fluorescence was detected using an M5 Plate Reader ([…])

zebrafish larvae = test: Phenotypic scoring of edema and survival in zebrafish larvae at 72 hpf; type: in vivo; details: 25 μM PBA, 200 nM TSA
Text: (§1) PTBA was synthesized as described below. Hydroxyurea and aphidicolin were obtained from Sigma-Aldrich.
Wild type: no visible edema or developmental delay.

[2] = tested on: HDAC activity in DSI9 mouse erythroleukemia cells; details: 5 mM; cited from earlier work
[3] = tested on: renal progenitor cells (lhx1a expression); test: In situ hybridization for lhx1a expression in 10-somite embryos (renal progenitor cell expansion); type: in vivo; on lhx1a expansion class, 200 nM: key: effective (+); partially effective (+/−); ineffective (−); Analogs that killed all embryos at a given concentration before reaching 10 somites are listed as XX; on lhx1a expansion class, 400 nM: key: effective (+); partially effective (+/−); ineffective (−); Analogs that killed all embryos at a given concentration before reaching 10 somites are listed as XX; on lhx1a expansion class, 800 nM: key: effective (+); partially effective (+/−); ineffective (−); Analogs that killed all embryos at a given concentration before reaching 10 somites are listed as XX
Description: as §1
(§2) In situ hybridization and immunocytochemistry: In situ hybridization was performed as previously described with some modifications. 142 Hybridization temperature was 65° C. Embryos were blocked in 2% blocking reagent (Roche) with 5% sheep serum in MAB (100 mM maleic acid and 150 mM NaCl [pH 7.5]). Whole-mount immunocytochemistry with 1:25 mouse anti-α6F antibody (Developmental Studies Hybridoma Bank) and 1:100 Cy3 secondary antibody (Jackson ImmunoResearch) was performed as described previously. 108 Embryos were embedded in JB-4 for sectioning per the manufacturer's instructions (Polysciences), sectioned at 5 μm, and mounted with Cytoseal 60 (Richard-Allan Scientific).
The remaining PTBA analogs were synthesized.
In situ hybridization for lhx1a was performed as described above. […] Compounds were classified as effective, partially-effective or ineffective based on comparison to the effects of PTBA at a given concentration.
Testing of the compounds is on-going, but for those tested, Table 3 provides first pass EC50s based upon colormetric in situ hybridizations for the Lhx1a mRNA expression levels. After the procedure is run, in situ hybridization is done for the lhx1 mRNA expression and the number of embryos that show an expanded kidney field is manually counted to establish the percent of embryos showing expansion. Then the EC50 is determined by plotting the percent expansion in Excel, graphing the results and using the trendline function to determine the 50 percent point. […] For UPHD-00186, the 4 values for EC50 are shown in Table 3 for the corresponding expression in zebrafish embryos employed an artificial intelligence-based image analysis method termed cognition network technology (CNT) for n=4.

[4] = tested on: myod1 (somites), fli1a (vasculature), ntla (notochord); test: In situ hybridization for mesodermal markers myod1, fli1a, ntla in 10-somite embryos; type: in vivo, zebrafish; details: 25 μM PBA
Description: as §1, §2

[5] = tested on: mouse models of unilateral ureteral obstruction (UUO); test: Unilateral ureteral obstruction (UUO); type: in vivo; details: IP days 0 to 6, kidneys harvested at day 7
Text: The model of unilateral ureteral obstruction generates progressive renal fibrosis. Surgically created UUO can be experimentally manipulated with respect to timing, severity, and duration, while reversal of the obstruction permits the study of recovery.
FIG. 47 represents the results of the testing of compounds UPHD-00022, UPHD-00025 (PTBA), UPHD-00029, UPHD-00036, and UPHD-00186, for their efficacy in mouse models of unilateral ureteral obstruction (UUO) as follows: in the UUO models, one ureter was ligated for 7 days and compounds were delivered via IP for days 0 to 6. At day 7 kidneys were harvested for Sirius red staining. […] Therefore, in the models tested, the only compound proven to be effective in all models and with significant delayed onset of treatment is UPHD-186.

[6] = tested on: CD1 mice, folic acid-induced injury; test: Folic acid-induced AKI; type: in vivo, mouse; details: daily IP 50 mg/ml in 30% PEG300 from 24 hrs after folic acid; after 15 days
Description: FIG. 41 are photomicrographs showing the results of an AKI model using folic acid-induced injury. Folic acid is administered to CD1 mice (n=6/group) intraperitoneally (IP) at 250 mg/ml in 0.3M NaHCO3. Compound UPHD-00022 was injected daily IP at […] in 30% PEG300 vehicle starting 24 hrs after folic acid treatment. Kidney tissue was stained using Trichrome and Sirus Red stained after 15 days. Blue in trichrome and the red in sirus red indicates fibrotic (scar) tissue.

[7] = lhx1a in situ hybridization, includes repeats* and recounts

Row | Structure (SMILES) | histone H4 hyperacetylation (histone H4 acetylation) | HDAC activity, % of the control value [1] | death (lethality) by 72 hpf (zebrafish larvae; n=90) | larvae with edemic phenotype / pericardial edema at 72 hpf (zebrafish larvae; treated from 2 hpf, 3 μM PTBA) | HDAC activity, % of the control value [2] | concentration producing lhx1a expansion consistent with 3 μM PTBA ([3]; 10-somite embryos) | embryos with decreased myod1 expression ([4]; 3 μM PTBA (slightly decreased), 200 nM TSA) | embryos with increased ntla expression ([4]; 3 μM PTBA) | embryos with decreased fli1a expression ([4]; 200 nM TSA) | lhx1a expansion class, 200 nM ([3]; 200 nM from 2 hpf) | lhx1a expansion class, 400 nM ([3]; 400 nM from 2 hpf) | lhx1a expansion class, 800 nM ([3]; 800 nM from 2 hpf) | responders at 0.4 µM ([3]; Danio rerio, 400 nM, read-out: embryos with expanded lhx1a expression (% expansion)) | responders at 0.8 µM ([3]; Danio rerio, 800 nM, read-out: embryos with expanded lhx1a expression (% expansion)) | Expansion of Cells, 800 nM [3, 7] | Expansion of Cells, 1.5 μM [3, 7] | Expansion of Cells, 3 μM [3, 7] | fibrosis (Sirius red) and expression of fibrosis markers in UUO kidney [5] | renal fibrosis (Trichrome and Sirus Red) [6]
1 | O=C(O)CCCc1ccccc1 [PBA, 4-phenylbutanoic acid] | hyperacetylation was observed | 30% | 8% | 23% | 19% | 25 µM | 57% | 87% | 78% |  |  |  |  |  |  |  |  |  | 
2 | COC(=O)CCCSc1ccc(OC)cc1 [UPHD-00022, methyl 4-[(4-methoxyphenyl)sulfanyl]butanoate] |  |  |  |  |  |  |  |  |  | − | +/− | + | 29% | 57% | 57% | 91% | 100% | reduce both fibrosis and expression of fibrosis markers | a reduction in fibrosis is seen
